Source: patent US11753407B2, “Compounds for treating spinal muscular atrophy” (PTC Therapeutics, Inc., priority 2012, dated 2023)

Assays:
[1] = test system: SMN2 minigene mRNA (SMN2-A minigene) in HEK293H cells; assay: SMN2 minigene mRNA splicing RT-qPCR assay in cultured cells; type: cell-based, human; conditions: Homo sapiens, HEK293-H; concentration increasing full length SMN2 mRNA 1.5-fold relative to vehicle-treated cells; HEK293H cells with SMN2-A minigene, 24 hours, 7-point concentration data; read-out: EC1.5x for production of full length SMN2 mRNA
Method in brief: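 Stable SMN2-A minigene HEK293H; cpd 7-pt 3.16-fold series, 200× in DMSO, 24 h, 37 °C, n=2. Lysates → multiplex RT-qPCR (minigene FL + GAPDH), efficiency-corrected ΔΔCt vs vehicle. EC1.5× = 1.5-fold FL mRNA gain.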

[2] = test system: Smn protein in SMA patient fibroblast cells (GM03813); assay: Smn protein assay in cultured cells (SMN HTRF); type: cell-based, human; conditions: SMA patient fibroblast cells, 48 hours; for maximum fold (Fold) increase of Smn protein: 7-point concentration data, fold relative to vehicle control; for EC1.5x for Smn protein expression: 7-point concentration curve, SMN HTRF, concentration producing 1.5 times Smn protein vs DMSO vehicle control
Method in brief: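 Fibroblasts, SMA patient; 5,000 cells/well; 7-pt curve, 3.16-fold serial dilution; 48 h, 37 °C, 5% CO2; RIPA lysis 1 h RT; anti-SMN d2 + kryptate overnight RT; HTRF 665/620 nm; fold vs DMSO; EC1.5×, max fold.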

Row | SMILES | EC (1.5-fold increase) [1] | melting point | maximum fold (Fold) increase of Smn protein [2] | EC1.5x for Smn protein expression [2]
1 | COc1ccc(-c2cc(=O)n3cc(N4C[C@H]5CCCN[C@H]5C4)ccc3n2)cc1F [Compound 301, 2-(3-fluoro-4-methoxyphenyl)-7-[(4aR,7aR)-octahydro-6H-pyrrolo[3,4-b]pyridin-6-yl]-4H-pyrido[1,2-a]pyrimidin-4-one] | 1 to 3 µM | 194 to 201 °C | * (A maximum fold increase of ≤1.2 is indicated by one star (*)) | –
2 | Cc1nc2ccc(-c3cc(=O)n4cc(C5=CCN(C)CC5)ccc4n3)cc2o1 [Compound 303, 2-(2-methyl-1,3-benzoxazol-6-yl)-7-(1-methyl-1,2,3,6-tetrahydropyridin-4-yl)-4H-pyrido[1,2-a]pyrimidin-4-one] | < 0.1 µM | 132 to 135 °C | **** (a fold increase between >1.5 and ≤1.65 is indicated by four stars (****)) | **** (an EC1.5x≤0.3 μM is indicated by four stars (****))
3 | CCN1CC=C(c2ccc3nc(-c4ccc5nc(C)oc5c4)cc(=O)n3c2)CC1 [Compound 304, 7-(1-ethyl-1,2,3,6-tetrahydropyridin-4-yl)-2-(2-methyl-1,3-benzoxazol-6-yl)-4H-pyrido[1,2-a]pyrimidin-4-one] | < 0.1 µM | 128 to 131 °C | ***** (a fold increase >1.65 is indicated by five stars (*****)) | **** (an EC1.5x≤0.3 μM is indicated by four stars (****))
4 | Cc1nc2c(F)cc(-c3cc(=O)n4cc(N5CCNCC5)ccc4n3)cc2o1 [Compound 305, 2-(4-fluoro-2-methyl-1,3-benzoxazol-6-yl)-7-(piperazin-1-yl)-4H-pyrido[1,2-a]pyrimidin-4-one] | < 0.1 µM | 184 to 186 °C | ***** (a fold increase >1.65 is indicated by five stars (*****)) | **** (an EC1.5x≤0.3 μM is indicated by four stars (****))
5 | Cc1nc2c(F)cc(-c3cc(=O)n4cc(N5CCN(C)[C@@H](C)C5)ccc4n3)cc2o1 [Compound 307, 7-[(3S)-3,4-dimethylpiperazin-1-yl]-2-(4-fluoro-2-methyl-1,3-benzoxazol-6-yl)-4H-pyrido[1,2-a]pyrimidin-4-one] | < 0.1 µM | 194 to 196 °C | **** (a fold increase between >1.5 and ≤1.65 is indicated by four stars (****)) | **** (an EC1.5x≤0.3 μM is indicated by four stars (****))
6 | CCN1CCN(c2ccc3nc(-c4cc(F)c5nc(C)oc5c4)cc(=O)n3c2)CC1 [Compound 309, 7-(4-ethylpiperazin-1-yl)-2-(4-fluoro-2-methyl-1,3-benzoxazol-6-yl)-4H-pyrido[1,2-a]pyrimidin-4-one] | < 0.1 µM | 212 to 214 °C | **** (a fold increase between >1.5 and ≤1.65 is indicated by four stars (****)) | **** (an EC1.5x≤0.3 μM is indicated by four stars (****))
7 | CCCN1CCN(c2ccc3nc(-c4cc(F)c5nc(C)oc5c4)cc(=O)n3c2)CC1 [Compound 310, 2-(4-fluoro-2-methyl-1,3-benzoxazol-6-yl)-7-(4-propylpiperazin-1-yl)-4H-pyrido[1,2-a]pyrimidin-4-one] | < 0.1 µM | 175 to 178 °C | *** (a fold increase between >1.35 and ≤1.5 is indicated by three stars (***)) | *** (an EC1.5× between >0.3 μM and ≤1 μM is indicated by three stars (***))
8 | CCN1C[C@@H]2CN(c3ccc4nc(-c5ccc(OC)c(F)c5)cc(=O)n4c3)C[C@@H]2C1 [Compound 311, 7-[(3aR,6aS)-5-ethylhexahydropyrrolo[3,4-c]pyrrol-2(1H)-yl]-2-(3-fluoro-4-methoxyphenyl)-4H-pyrido[1,2-a]pyrimidin-4-one] | 0.1 to 0.3 µM | 157 to 167 °C | ** (a fold increase between >1.2 and ≤1.35 is indicated by two stars (**)) | –
9 | COc1ccc(-c2cc(=O)n3cc(C4=CCNCC4)cc(C)c3n2)cc1F [Compound 312, 2-(3-fluoro-4-methoxyphenyl)-9-methyl-7-(1,2,3,6-tetrahydropyridin-4-yl)-4H-pyrido[1,2-a]pyrimidin-4-one] | < 0.1 µM | 211 to 215 °C | **** (a fold increase between >1.5 and ≤1.65 is indicated by four stars (****)) | **** (an EC1.5x≤0.3 μM is indicated by four stars (****))
10 | COc1ccc(-c2cc(=O)n3cc(N4C[C@H]5CCCN(C)[C@H]5C4)ccc3n2)cc1F [Compound 313, 2-(3-fluoro-4-methoxyphenyl)-7-[(4aR,7aR)-1-methyloctahydro-6H-pyrrolo[3,4-b]pyridin-6-yl]-4H-pyrido[1,2-a]pyrimidin-4-one] | 1 to 3 µM | 223 to 227 °C | * (A maximum fold increase of ≤1.2 is indicated by one star (*)) | –
11 | COc1ccc(-c2cc(=O)n3cc(N4CCN[C@H](C)C4)cc(C)c3n2)cc1OC [Compound 314, 2-(3,4-dimethoxyphenyl)-9-methyl-7-[(3R)-3-methylpiperazin-1-yl]-4H-pyrido[1,2-a]pyrimidin-4-one] | < 0.1 µM | 177 to 184 °C | **** (a fold increase between >1.5 and ≤1.65 is indicated by four stars (****)) | *** (an EC1.5× between >0.3 μM and ≤1 μM is indicated by three stars (***))
12 | COc1ccc(-c2cc(=O)n3cc(C4=CCN(C)CC4)cc(C)c3n2)cc1F [Compound 315, 2-(3-fluoro-4-methoxyphenyl)-9-methyl-7-(1-methyl-1,2,3,6-tetrahydropyridin-4-yl)-4H-pyrido[1,2-a]pyrimidin-4-one] | < 0.1 µM | 184 to 190 °C | *** (a fold increase between >1.35 and ≤1.5 is indicated by three stars (***)) | –
13 | COc1ccc(-c2ccc3nc(C4CCNCC4)cc(=O)n3c2)cc1F [Compound 316, 7-(3-fluoro-4-methoxyphenyl)-2-(piperidin-4-yl)-4H-pyrido[1,2-a]pyrimidin-4-one] | 0.1 to 0.3 µM | 278 to 281 °C | ***** (a fold increase >1.65 is indicated by five stars (*****)) | ** (an EC1.5× between >1 μM and ≤3 μM is indicated by two stars (**))
14 | COc1ccc(-c2ccc3nc(C4CCN(C)CC4)cc(=O)n3c2)cc1F [Compound 317, 7-(3-fluoro-4-methoxyphenyl)-2-(1-methylpiperidin-4-yl)-4H-pyrido[1,2-a]pyrimidin-4-one] | 0.3 to 1 µM | 202 to 205 °C | **** (a fold increase between >1.5 and ≤1.65 is indicated by four stars (****)) | ** (an EC1.5× between >1 μM and ≤3 μM is indicated by two stars (**))
15 | CCN1CC=C(c2ccc3nc(-c4cc(F)c5nc(C)oc5c4)cc(=O)n3c2)CC1 [Compound 318, 7-(1-ethyl-1,2,3,6-tetrahydropyridin-4-yl)-2-(4-fluoro-2-methyl-1,3-benzoxazol-6-yl)-4H-pyrido[1,2-a]pyrimidin-4-one] | < 0.1 µM | 151 to 154 °C | ***** (a fold increase >1.65 is indicated by five stars (*****)) | **** (an EC1.5x≤0.3 μM is indicated by four stars (****))
16 | CCCN1CC=C(c2ccc3nc(-c4cc(F)c5nc(C)oc5c4)cc(=O)n3c2)CC1 [Compound 319, 2-(4-fluoro-2-methyl-1,3-benzoxazol-6-yl)-7-(1-propyl-1,2,3,6-tetrahydropyridin-4-yl)-4H-pyrido[1,2-a]pyrimidin-4-one] | < 0.1 µM | 159 to 162 °C | **** (a fold increase between >1.5 and ≤1.65 is indicated by four stars (****)) | **** (an EC1.5x≤0.3 μM is indicated by four stars (****))
17 | CCN1CCN(c2ccc3cc(-c4ccc5nc(C)oc5c4)cc(=O)n3c2)C[C@@H]1C [Compound 324, 7-[(3S)-4-ethyl-3-methylpiperazin-1-yl]-2-(2-methyl-1,3-benzoxazol-6-yl)-4H-quinolizin-4-one] | 0.3 to 1 µM | 288 to 290 °C | *** (a fold increase between >1.35 and ≤1.5 is indicated by three stars (***)) | –
18 | Cc1nc2ccc(-c3cc(=O)n4cc(N5CCN(C)[C@@H](C)C5)ccc4c3)cc2o1 [Compound 325, 7-[(3S)-3,4-dimethylpiperazin-1-yl]-2-(2-methyl-1,3-benzoxazol-6-yl)-4H-quinolizin-4-one] | 0.3 to 1 µM | > 300 °C | *** (a fold increase between >1.35 and ≤1.5 is indicated by three stars (***)) | –
19 | Cc1nc2ccc(-c3cc(=O)n4cc(N5CCC(N)CC5)ccc4c3)cc2o1 [Compound 326, 7-(4-aminopiperidin-1-yl)-2-(2-methyl-1,3-benzoxazol-6-yl)-4H-quinolizin-4-one] | 1 to 3 µM | 288 to 290 °C | *** (a fold increase between >1.35 and ≤1.5 is indicated by three stars (***)) | ** (an EC1.5× between >1 μM and ≤3 μM is indicated by two stars (**))
